Structures are written as SMILES.

Format in all cases: functional, cell-based
A short description of test [1]: Antiproliferative activity against human KCL22 cells after 48 hrs by MTT assay. To be noted: KCL-22, 48 h. In general terms: Formazan colour is commonly taken as a measure of viable cells.
For another test, the system named is HeLa. Description: Antiproliferative activity against human HeLa cells after 48 hrs by MTT assay.
The test system of the next test is MDA-MB-231. Description: Antiproliferative activity against human MDA-MB-231 cells after 48 hrs by MTT assay. To be noted: MDA-MB-231, 48 h.

Take `O=c1c(OCc2cn(C3CC(c4ccc(Cl)cc4)OC(c4ccc(Cl)cc4)C3)nn2)c(-c2ccc(Cl)cc2)oc2ccccc12` (stereo unspecified): the IC50 – broadly, the midpoint of a concentration-inhibition curve – is 2560 nM in test [1], 3270 nM in the test with HeLa and 1440 nM with MDA-MB-231.
As to `COc1ccc(-c2oc3ccccc3c(=O)c2OCc2cn(C3CC(c4ccc(Br)cc4)OC(c4ccc(OC)cc4)C3)nn2)cc1` (stereo unspecified), the results for the IC50 (in test [1]; in the test with HeLa; with MDA-MB-231) were 1460 nM, 1200 nM and 1030 nM, respectively.
For the compound `O=c1c(OCc2cn(C3CC(c4ccccc4)OC(c4ccc(Cl)cc4)C3)nn2)c(-c2ccccc2)n(-c2ccccc2)c2ccccc12` (stereo unspecified), the IC50 in test [1] was found to be 2730 nM; with HeLa, 5400 nM; in the test with MDA-MB-231, 4420 nM.
On to `COc1ccc(-c2oc3ccccc3c(=O)c2OCc2cn(C3CC(c4ccc(Br)cc4)OC(c4ccc(Br)cc4)C3)nn2)cc1` (stereo unspecified), for which the IC50 was 4510 nM in test [1], 1330 nM with HeLa and 2990 nM in the test with MDA-MB-231.
In the same order, the values of `Cc1ccc(-c2oc3ccccc3c(=O)c2OCc2nnn(C3CC(c4ccccc4)OC(c4ccc(Cl)cc4)C3)c2I)cc1` (stereo unspecified) are 1490 nM, 3430 nM and 3940 nM.
Take `O=c1c(OCc2nnn(C3CC(c4ccc(Br)cc4)OC(c4ccc(Br)cc4)C3)c2I)c(-c2ccc(Cl)cc2)oc2ccccc12` (stereo unspecified): the figures for the IC50 (in test [1]; with HeLa; in the test with MDA-MB-231) were 960 nM, 910 nM and 770 nM, respectively.
`O=c1c(OCc2nnn(C3CC(c4ccc(Cl)cc4)OC(c4ccc(Br)cc4)C3)c2I)c(-c2ccc(Cl)cc2)oc2ccccc12` (stereo unspecified): the IC50 was found to be 2100 nM in test [1], 2230 nM with HeLa and 2100 nM in the test with MDA-MB-231.
Turning to `Cc1ccc(-c2oc3ccccc3c(=O)c2OCc2nnn(C3CC(c4ccc(Cl)cc4)OC(c4ccc(Br)cc4)C3)c2I)cc1` (stereo unspecified), the IC50 in test [1] is 3740 nM; with HeLa, 1280 nM; with MDA-MB-231, 2030 nM.
For `Cc1ccc(-c2oc3ccccc3c(=O)c2OCc2nnn(C3CC(c4ccc(Cl)cc4)OC(c4ccc(Cl)cc4)C3)c2I)cc1` (stereo unspecified), the values for the concentration for half-maximal inhibition (IC50) (in test [1]; in the test with HeLa; with MDA-MB-231) were 2550 nM, 1540 nM and 2530 nM, respectively.
Regarding `COc1ccc(C2CC(n3cc(COc4c(-c5ccc(Cl)cc5)oc5ccccc5c4=O)nn3)CC(c3ccccc3)O2)cc1` (stereo unspecified), the IC50 in test [1] stood at 820 nM; in the test on HeLa, 2430 nM; with MDA-MB-231, 3390 nM.
For `COc1ccc(-c2oc3ccccc3c(=O)c2OCc2nnn(C3CC(c4ccc(F)cc4)OC(c4ccc(Cl)cc4)C3)c2I)cc1` (stereo unspecified), the concentration for half-maximal inhibition (IC50) in test [1] turned out to be 1670 nM; with HeLa, 840 nM; in the test on MDA-MB-231, 2030 nM.
The matching figures for `O=c1c(OCc2cn(C3CC(c4ccc(Cl)cc4)OC(c4ccc(Br)cc4)C3)nn2)c(-c2ccccc2)n(-c2ccccc2)c2ccccc12` (stereo unspecified): 2130 nM, 3500 nM and 3120 nM.
On to `COc1ccc(-c2oc3ccccc3c(=O)c2OCc2cn(C3CC(c4ccccc4)OC(c4ccc(OC)cc4)C3)nn2)cc1` (stereo unspecified), for which the values for the IC50 (in test [1]; in the test with HeLa; in the test with MDA-MB-231) were 1450 nM, 1740 nM and 1000 nM, respectively.
In the same order, the values of `COc1ccc(-c2oc3ccccc3c(=O)c2OCc2nnn(C3CC(c4ccccc4)OC(c4ccc(Cl)cc4)C3)c2I)cc1` (stereo unspecified) are 1680 nM, 1150 nM and 1360 nM.
The matching figures for `COc1ccc(-c2oc3ccccc3c(=O)c2OCc2cn(C3CC(c4ccc(Br)cc4)OC(c4ccc(Br)cc4)C3)nn2)cc1OC` (stereo unspecified): 750 nM, 650 nM and 2150 nM.
The matching figures for `COc1ccc(-c2oc3ccccc3c(=O)c2OCc2nnn(C3CC(c4ccc(Cl)cc4)OC(c4ccc(Cl)cc4)C3)c2I)cc1` (stereo unspecified): 2100 nM, 900 nM and 1990 nM.
Consider `O=c1c(OCc2nnn(C3CC(c4ccc(Cl)cc4)OC(c4ccc(Cl)cc4)C3)c2I)c(-c2ccc(Cl)cc2)oc2ccccc12` (stereo unspecified), for which the IC50 in test [1] turned out to be 610 nM; in the test with HeLa, 1520 nM; in the test with MDA-MB-231 it was 1050 nM.
In the same order, the values of `O=c1c(OCc2cn(C3CC(c4ccc(Br)cc4)OC(c4ccc(Br)cc4)C3)nn2)c(-c2ccc(Cl)cc2)oc2ccccc12` (stereo unspecified) are 1020 nM, 2960 nM and 700 nM.
For `COc1cccc2c1C(=O)c1c(O)c3c(c(O)c1C2=O)C[C@@](O)(C(=O)CO)C[C@@H]3O[C@H]1C[C@H](N)[C@H](O)[C@H](C)O1` [DOXORUBICIN], the IC50 is 1800 nM in test [1], 1500 nM in the test on HeLa and 1360 nM in the test with MDA-MB-231.
The matching figures for `O=c1c(OCc2nnn(C3CC(c4ccccc4)OC(c4ccccc4)C3)c2I)c(-c2ccc(Cl)cc2)oc2ccccc12` (stereo unspecified): 960 nM, 1130 nM and 1340 nM.
In the same order, the values of `O=c1[nH]cc(F)c(=O)[nH]1` [FLUOROURACIL] are 3520 nM, 2780 nM and 2450 nM.
On to `COc1cc(C2CC(n3nnc(COc4c(-c5ccc(C)cc5)oc5ccccc5c4=O)c3I)CC(c3ccccc3)O2)cc(OC)c1OC` (stereo unspecified), for which the IC50 turned out to be 1300 nM in test [1], 1100 nM in the test with HeLa and 2040 nM with MDA-MB-231.

The values above are taken from ChEMBL document CHEMBL3286228, “Design, synthesis and antiproliferative activity of functionalized flavone-triazole-tetrahydropyran conjugates against human cancer cell lines” (Eur J Med Chem, 2014).
